Results published in US20240024302A1, “SOLUBLE EPOXIDE HYDROLASE (sEH) INHIBITORS AND DUAL COX/sEH INHIBITORS FOR THE TREATMENT OF ARRHYTHMOGENIC CARDIOMYOPATHY” (BETH ISRAEL DEACONESS MEDICAL CENTER, INC., priority 2020, published 2024).
“Also recorded” adds a separate entry of the source.

Tests used:
[1] = target: T1, soluble epoxide hydrolase (sEH) (Homo sapiens, UniProt P34913); assay: Human in vitro Ki and dissociation t1/2 from the enzyme (fluorescence signals); format: binding; conditions: based on fluorescence signals
T1 sequence (P34913 1-555): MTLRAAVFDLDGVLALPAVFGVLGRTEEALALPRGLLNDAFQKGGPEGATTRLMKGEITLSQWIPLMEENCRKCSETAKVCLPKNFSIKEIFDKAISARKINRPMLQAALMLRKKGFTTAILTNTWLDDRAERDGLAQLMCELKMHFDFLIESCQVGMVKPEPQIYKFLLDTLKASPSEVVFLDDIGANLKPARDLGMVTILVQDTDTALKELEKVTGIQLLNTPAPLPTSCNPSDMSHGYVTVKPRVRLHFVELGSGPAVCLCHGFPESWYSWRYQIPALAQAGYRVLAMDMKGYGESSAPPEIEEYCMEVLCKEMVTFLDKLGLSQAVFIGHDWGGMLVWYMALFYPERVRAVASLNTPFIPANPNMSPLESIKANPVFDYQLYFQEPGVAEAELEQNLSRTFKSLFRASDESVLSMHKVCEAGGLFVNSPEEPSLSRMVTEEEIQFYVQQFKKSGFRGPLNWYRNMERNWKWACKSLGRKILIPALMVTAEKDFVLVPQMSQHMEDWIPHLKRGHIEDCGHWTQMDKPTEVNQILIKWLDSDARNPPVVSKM

[2] = Mouse PK, single oral gavage; conditions: single dose 0.3 mg/kg; for AUC: Mouse AUC; for half-life: Mouse T1/2, oral gavage; for Tmax: Mouse Tmax
[3] = Rat PK, single oral gavage; format: in vivo; conditions: single dose 0.1 mg/kg; for AUC / Rat AUC: PEG 300; for half-life: read-out: Rat T1/2 (converted)
[4] = tested on: Neonatal rat ventricular myocytes (NRVM) expressing 2157del2 JUP; assay: Immunofluorescence of junction proteins in ACM in vitro model; format: cell-based; conditions: Jup2157del2 myocytes; for ACM disease features/readouts overall, EET and EEZE: 10 μM
Protocol: Neonatal rat ventricular myocytes (NRVM) were isolated from the ventricles of 1-day-old Wistar rat pups and plated on collagen-coated plastic chambers. 24 hours following seeding, the cells were transfected with an adenoviral construct expressing a mutant form of plakoglobin known to cause arrhythmogenic cardiomyopathy in patients (2157del2 JUP). […] Non-transfected cultures and cultures transfected with the adenoviral construct only served as negative and positive controls, respectively.
Immunofluorescence: Cell cultures were fixed with 4% paraformaldehyde and prepared for immunofluorescence analysis as previously described (1). […] Cy3-conjugated goat anti-mouse and anti-rabbit antibodies (Jackson Immunolabs) were used as secondary antibodies and DAPI was used to visualize the nuclei. Immunostained preparations were visualized by confocal microscopy and changes in spatial distribution of signal were assessed qualitatively.

[5] = mouse, in vivo, po, 0.3 mg/kg, oral gavage, 20% PEG400 in oleic acid-rich triglyceride
[6] = mouse, in vivo, po, 0.3 mg/kg, Mouse Cmax, oral gavage
[7] = mouse, in vivo, po, 0.3 mg/kg, oral gavage

Row | AUC [2, 5] | Cmax [2, 6] | half-life ([2]; mouse, in vivo, po, 0.3 mg/kg) | Tmax [2, 7] | Cmax ([3]; rat, in vivo) | Tmax ([3]; rat, in vivo) | AUC ([3]; rat, in vivo) | half-life ([3]; rat, in vivo) | SMILES | other results
1 | 5.06 µM·h | 460 nM | 2.8 h | 4.1 h | 23 ± 1 nM | 4.4 ± 0.2 h | 0.234 ± 0.019 µM·h | 3.7 ± 0.6 h | O=C(Nc1ccc(OC(F)(F)F)cc1)NC1CCN(C(=O)C2CCOCC2)CC1 | –
2 | 5.26 µM·h | 376 nM | 3.6 h | 5.2 h | 54 ± 3 nM | 2.5 ± 0.2 h | 0.391 ± 0.031 µM·h | 3 ± 0.4 h | O=C(Nc1ccc(C(F)(F)F)cc1)NC1CCN(C(=O)C2CCOCC2)CC1 | –
3 | 0.67 µM·h | 58 nM | 2.9 h | 4.2 h | – | – | – | – | O=C(Nc1ccc(OC(F)(F)F)cc1)NC1CCN(C(=O)C2=COCC2)CC1 | –
4 | 11.6 µM·h | 590 nM | 5 h | 7.4 h | – | – | – | – | O=C(O)CC1(CC(=O)N2CCC(NC(=O)Nc3ccc(C(F)(F)F)cc3)CC2)CCCCC1 | –
5 | 3.17 µM·h | 199 nM | 4.1 h | 5.9 h | – | – | – | – | O=C(Nc1ccc(C(F)(F)F)cc1)NC1CCN(C(=O)C2CCCOC2)CC1 (centres unmarked) | –
6 | 12.6 µM·h | 703 nM | 4.6 h | 6.6 h | – | – | – | – | O=C(Nc1ccc(OC(F)(F)F)cc1)NC1CCN(C(=O)C2CCOC2)CC1 (centres unmarked) | –
7 | 0.729 µM·h | 154 nM | 1.2 h | 1.7 h | – | – | – | – | O=C(Nc1ccc(C(F)(F)F)cc1)NC1CCN(C(=O)[C@@H]2CCOC2)CC1 | –
8 | 20.6 µM·h | 978 nM | 5.4 h | 8 h | – | – | – | – | CCC(=O)N1CCC(NC(=O)Nc2ccc(OC(F)(F)F)c(F)c2)CC1 | Cmax [3]: 196 ± 12 nM; Rat T1/2 [3]: 4.2 ± 0.8 h; Rat Tmax [3]: 4.5 ± 0.5 h; Rat AUC [3]: 2.701 ± 0.357 µM·h

More lines, now with the values behind:

Row | SMILES | AUC [2, 5] | Cmax [2, 6] | half-life ([2]; mouse, in vivo, po, 0.3 mg/kg) | Tmax [2, 7] | Cmax ([3]; rat, in vivo) | Tmax ([3]; rat, in vivo) | AUC ([3]; rat, in vivo) | half-life ([3]; rat, in vivo) | other results
9 | CC[C@H](C)C(=O)N1CCC(NC(=O)Nc2ccc(C(F)(F)F)nc2)CC1 | – | – | – | – | – | – | – | – | Human In vitro t1/2 (time for half of the drug being dissociated from the enzyme) [1]: 3.7 min
10 | O=C(Nc1ccc(OC(F)(F)F)cc1)N[C@H]1CC[C@H](Oc2ccc(C(=O)O)cc2)CC1 [Compound 3.023] | – | – | – | – | – | – | – | – | ACM disease features overall (plakoglobin, Cx43, pRelA/p65, TUNEL), sEH inhibitors ([4]; 2.017 500 nM, 1.045 1 μM, concentration not given for 1,002 and 3.023): showed similar results
11 | CCC(=O)N1CCC(NC(=O)Nc2ccc(OC(F)(F)F)cc2)CC1 [drawing 62] | – | – | – | – | 133 ± 4 nM | 2.3 ± 0.4 h | 1.08 ± 0.089 µM·h | 6 ± 0.7 h | Mouse T1/2 ([2]; oral gavage): 12.1 h; Mouse AUC ([2]; oral gavage, 20% PEG400 in oleic acid-rich triglyceride): 10.65 µM·h; Cmax ([2]; read-out: Mouse Cmax, oral gavage): 495 nM
12 | O=C(Nc1ccc(C(F)(F)F)c(F)c1)NC1CCN(C(=O)C2CCOCC2)CC1 | 0.0988 ± 0.0002 µM·h | – | – | – | 139 ± 9 nM | 4 ± 0.4 h | 1.65 ± 0.042 µM·h | 4.5 ± 0.4 h | –
13 | O=C(Nc1ccc(OC(F)(F)F)c(F)c1)NC1CCN(C(=O)C2CC2)CC1 | 5.59 µM·h | 282 nM | 5.1 h | 7.6 h | – | – | – | – | Cmax [3]: 95 ± 3 nM; Rat T1/2 [3]: 2.9 ± 0.3 h; Rat Tmax [3]: 4.0 ± 0.1 h; Rat AUC [3]: 1.027 ± 0.065 µM·h
14 | CCCCCC1OC1CCCCCCC/C=C\CCCC(=O)O (centres unmarked) [14,15-EE-5(Z)E, reference compound] | – | – | – | – | – | – | – | – | ACM disease features/readouts overall, EET and EEZE [4]: intensified ACM disease readouts; also recorded: intensifies these ACM disease features; also recorded: intensified these ACM features
15 | O=C(Nc1ccc(OC(F)(F)F)c(F)c1)NC1CCN(C(=O)C2(C(F)(F)F)CC2)CC1 | 0.0997 ± 0.0001 µM·h | – | – | – | 41 ± 3 nM | 4.3 ± 0.4 h | 0.486 ± 0.087 µM·h | 2.9 ± 0.3 h | –
16 | CC[C@H](C)C(=O)N1CCC(NC(=O)Nc2ccc(OC(F)(F)F)c(OC(F)(F)F)c2)CC1 | ≥ 0.0999 µM·h | – | – | – | 11 ± 1 nM | 2.5 ± 0.2 h | 0.075 ± 0.006 µM·h | 2.3 ± 0.4 h | –
17 | CC[C@H](C)C(=O)N1CCC(CC(=O)Nc2ccc(OC(F)(F)F)c(F)c2)CC1 | 0.0995 ± 0.0001 µM·h | – | – | – | 3.6 ± 0.6 nM | 1.4 ± 0.1 h | 0.016 ± 0.001 µM·h | 0.9 ± 0.1 h | –
18 | CCCCCC1OC1C/C=C\C/C=C\C/C=C\CCCC(=O)O (centres unmarked) [14,15-EET, reference compound] | – | – | – | – | – | – | – | – | ACM disease features/readouts overall, EET and EEZE [4]: produced potent salutary effects; also recorded: reversed
